# In patent publication US11931431B2, “PSMA-targeted radiopharmaceutical for diagnosing and treating prostate cancer” (FUTURECHEM CO., LTD, priority 2018, dated 2024):
# “Also recorded” adds a separate entry of the source.
# Experiments:
# [1] = Measurement of lipophilicity (log P), n-octanol/PBS; format: physicochemical; details: mean of 3
# Procedure: Each of the [^68Ga]1 compounds (1˜2 mci) synthesized in Example 14 was transferred into a vial, and the solvent was removed, to which 1 mL of n-octanol and 1 mL of PBS were added, and the lid was well closed, followed by mixing with a vortex for 1 minute. After the layers were separated, 0.1 mL was taken from each layer and the radiation dose was measured. The radiation dose was measured by repeating 3 times, and the mean value was obtained.
# PSMA^+ PC-3 PIP tumors [2] = experiment: MicroPET/CT imaging of mice transplanted with prostate cancer cell lines; format: in vivo, nude mouse
# Procedure: A tumor model was prepared by subcutaneously injecting PSMA^+ PC-3 PIP cells (a human prostate cancer cell line) to the right side of the nude mouse hind leg. Each of the ^68Ga-labeled compounds [^68Ga]1e, [^68Ga]1g, [^68Ga]1h and [^68Ga]1k was intravenously injected with 5.5 to 6.5 MBq (148-175 μCi/200 μL), and PET/CT images were obtained using small animal INVEON PET/CT (Siemens medical solutions, Knoxville, USA) for 60 minutes. After 150 minutes, 270 minutes, and 390 minutes, PET/CT images were also obtained for 30 minutes. The obtained PET/CT image results were quantitatively analyzed using Inveon™ Research Workplace (IRW).
# FIGS. 1, 2, 3, and 4 are graphs showing the quantitative analysis results of MicorPET/CT images for [^68Ga]1e, [^68Ga]1g, [^68Ga]1h, and [^68Ga]1k in % injected dose (ID)/g, and summarized in Tables 3, 4, 5, and 6, respectively.
# PSMA^+ PC-3 PIP tumors [3] = experiment: Biodistribution test with mice transplanted with prostate cancer cell lines (gamma counter); format: in vivo, nude mouse; details: 5 hours after injection, gamma counter
# Procedure: After 270 minutes of [^68Ga]1e and [^68Ga]1g injection, microPET/CT images were obtained for 30 minutes, and then each organ (blood, muscle, fat, heart, lung, liver, spleen, stomach, intestine, kidney, bone and tumor) was extracted and the radioactivity thereof was measured using a gamma counter.
smiles,measurement,setting,value
O=C(O)CCC(NC(=O)NC(CCCCN(CC(=O)O)C(=O)COCCOCCNC(=O)CN1CCN2CCN3CCN(CC1)CC(=O)[O][68Ga]([O]C(=O)C2)[O]C(=O)C3)C(=O)O)C(=O)O (stereo not drawn) [[^68Ga]1e],logP,[1],−2.88
same,intake of mouse organ: Bladder,PSMA^+ PC-3 PIP tumors [2]; 10 min after injection,19.37 ± 0.32 % ID/g
same,intake of mouse organ: Kidney,PSMA^+ PC-3 PIP tumors [2]; 10 min after injection,21.37 ± 9.18 % ID/g
same,intake of mouse organ: Liver,PSMA^+ PC-3 PIP tumors [2]; 10 min after injection,4.76 ± 0.42 % ID/g
same,intake of mouse organ: Muscle,PSMA^+ PC-3 PIP tumors [2]; 10 min after injection,1.46 ± 0.14 % ID/g
same,intake of mouse organ: Tumor (PIP),PSMA^+ PC-3 PIP tumors [2]; 10 min after injection,2.33 ± 0.36 % ID/g
same,intake of mouse organ: Bladder,PSMA^+ PC-3 PIP tumors [2]; 20 min after injection,47.31 ± 7.34 % ID/g
same,intake of mouse organ: Kidney,PSMA^+ PC-3 PIP tumors [2]; 20 min after injection,10.96 ± 4.32 % ID/g
same,intake of mouse organ: Liver,PSMA^+ PC-3 PIP tumors [2]; 20 min after injection,1.96 ± 0.22 % ID/g
same,intake of mouse organ: Muscle,PSMA^+ PC-3 PIP tumors [2]; 20 min after injection,1.38 ± 0.11 % ID/g
same,intake of mouse organ: Tumor (PIP),PSMA^+ PC-3 PIP tumors [2]; 20 min after injection,3.64 ± 0.49 % ID/g
same,intake of mouse organ: Bladder,PSMA^+ PC-3 PIP tumors [2]; 30 min after injection,55.82 ± 12.46 % ID/g
same,intake of mouse organ: Kidney,PSMA^+ PC-3 PIP tumors [2]; 30 min after injection,10.88 ± 7.09 % ID/g
same,intake of mouse organ: Liver,PSMA^+ PC-3 PIP tumors [2]; 30 min after injection,1.29 ± 0.05 % ID/g
same,intake of mouse organ: Muscle,PSMA^+ PC-3 PIP tumors [2]; 30 min after injection,0.95 ± 0.13 % ID/g
same,intake of mouse organ: Tumor (PIP),PSMA^+ PC-3 PIP tumors [2]; 30 min after injection,4.08 ± 0.60 % ID/g
same,intake of mouse organ: Bladder,PSMA^+ PC-3 PIP tumors [2]; 40 min after injection,60.63 ± 15.48 % ID/g
same,intake of mouse organ: Kidney,PSMA^+ PC-3 PIP tumors [2]; 40 min after injection,14.92 ± 13.57 % ID/g
same,intake of mouse organ: Liver,PSMA^+ PC-3 PIP tumors [2]; 40 min after injection,1.00 ± 0.03 % ID/g
same,intake of mouse organ: Muscle,PSMA^+ PC-3 PIP tumors [2]; 40 min after injection,0.61 ± 0.05 % ID/g
same,intake of mouse organ: Tumor (PIP),PSMA^+ PC-3 PIP tumors [2]; 40 min after injection,4.44 ± 0.48 % ID/g
same,intake of mouse organ: Bladder,PSMA^+ PC-3 PIP tumors [2]; 50 min after injection,64.24 ± 12.76 % ID/g
same,intake of mouse organ: Kidney,PSMA^+ PC-3 PIP tumors [2]; 50 min after injection,15.84 ± 15.60 % ID/g
same,intake of mouse organ: Liver,PSMA^+ PC-3 PIP tumors [2]; 50 min after injection,0.80 ± 0.02 % ID/g
same,intake of mouse organ: Muscle,PSMA^+ PC-3 PIP tumors [2]; 50 min after injection,0.53 ± 0.05 % ID/g
same,intake of mouse organ: Tumor (PIP),PSMA^+ PC-3 PIP tumors [2]; 50 min after injection,4.56 ± 1.03 % ID/g
same,intake of mouse organ: Bladder,PSMA^+ PC-3 PIP tumors [2]; 60 min after injection,67.80 ± 8.56 % ID/g
same,intake of mouse organ: Kidney,PSMA^+ PC-3 PIP tumors [2]; 60 min after injection,15.72 ± 16.29 % ID/g
same,intake of mouse organ: Liver,PSMA^+ PC-3 PIP tumors [2]; 60 min after injection,0.65 ± 0.04 % ID/g
same,intake of mouse organ: Muscle,PSMA^+ PC-3 PIP tumors [2]; 60 min after injection,0.35 ± 0.05 % ID/g
same,intake of mouse organ: Tumor (PIP),PSMA^+ PC-3 PIP tumors [2]; 60 min after injection,4.73 ± 0.98 % ID/g
same,intake of mouse organ: Bladder,PSMA^+ PC-3 PIP tumors [2]; 150 min after injection,31.85 ± 35.57 % ID/g
same,intake of mouse organ: Kidney,PSMA^+ PC-3 PIP tumors [2]; 150 min after injection,0.70 ± 0.02 % ID/g
same,intake of mouse organ: Liver,PSMA^+ PC-3 PIP tumors [2]; 150 min after injection,0.06 ± 0.01 % ID/g
same,intake of mouse organ: Muscle,PSMA^+ PC-3 PIP tumors [2]; 150 min after injection,0.02 ± 0.01 % ID/g
same,intake of mouse organ: Tumor (PIP),PSMA^+ PC-3 PIP tumors [2]; 150 min after injection,4.20 ± 0.42 % ID/g
same,intake of mouse organ: Bladder,PSMA^+ PC-3 PIP tumors [2]; 270 min after injection,1.45 ± 1.62 % ID/g
same,intake of mouse organ: Kidney,PSMA^+ PC-3 PIP tumors [2]; 270 min after injection,0.41 ± 0.16 % ID/g
same,intake of mouse organ: Liver,PSMA^+ PC-3 PIP tumors [2]; 270 min after injection,0.03 ± 0.01 % ID/g
same,intake of mouse organ: Muscle,PSMA^+ PC-3 PIP tumors [2]; 270 min after injection,0.01 ± 0.01 % ID/g
same,intake of mouse organ: Tumor (PIP),PSMA^+ PC-3 PIP tumors [2]; 270 min after injection,4.05±0.64 % ID/g
same,"excretion, in words",PSMA^+ PC-3 PIP tumors [2]; MicroPET/CT,rapidly excreted through the kidney and bladder; also recorded: rapidly excreted out of the body
same,Radioactivity in mouse organ: Blood,PSMA^+ PC-3 PIP tumors [3],0.01 ± 0.00 % ID/g
same,Radioactivity in mouse organ: Bone,PSMA^+ PC-3 PIP tumors [3],0.00 ± 0.00 % ID/g
same,Radioactivity in mouse organ: Fat,PSMA^+ PC-3 PIP tumors [3],0.01 ± 0.00 % ID/g
same,Radioactivity in mouse organ: Heart,PSMA^+ PC-3 PIP tumors [3],0.01 ± 0.00 % ID/g
same,Radioactivity in mouse organ: Intestine,PSMA^+ PC-3 PIP tumors [3],0.09 ± 0.08 % ID/g
same,Radioactivity in mouse organ: Kidney,PSMA^+ PC-3 PIP tumors [3],0.82 ± 0.51 % ID/g
same,Radioactivity in mouse organ: Liver,PSMA^+ PC-3 PIP tumors [3],0.02 ± 0.01 % ID/g
same,Radioactivity in mouse organ: Lung,PSMA^+ PC-3 PIP tumors [3],0.02 ± 0.01 % ID/g
same,Radioactivity in mouse organ: Muscle,PSMA^+ PC-3 PIP tumors [3],0.01 ± 0.00 % ID/g
same,Radioactivity in mouse organ: PSMA + PIP (tumor intake rate),PSMA^+ PC-3 PIP tumors [3],7.34 ± 5.49 % ID/g
same,Radioactivity in mouse organ: Spleen,PSMA^+ PC-3 PIP tumors [3],0.01 ± 0.00 % ID/g
same,Radioactivity in mouse organ: Stomach,PSMA^+ PC-3 PIP tumors [3],0.02 ± 0.02 % ID/g
